Source: paper PMC7413516, “Antidepressant-like activity and safety profile evaluation of 1H-imidazo[2,1-f]purine-2,4(3H,8H)-dione derivatives as 5-HT1A receptor partial agonists” (PLoS ONE, 2020)
Entries after “also recorded” stand apart in the source; their conditions may differ.

Legend:
[1] = Plasma ALAT and γ-GTP activity after repeated administration; format: in vivo, Swiss albino mice; settings: mice, AZ-853 0.625, AZ-861 1.25 mg/kg b.w./day
Method: (§1) The Swiss albino mice were used in the experiment. AZ-853 and AZ-861 were injected once daily for 16 consecutive days. On the 1st and 15th day the administration of the compounds, 18-h spontaneous animal activity was registered (see below). FST, as described earlier, was performed on the 14th day just before the next treatment. To ensure that the effects observed in FST are not the result of increased motility of animals, on the 13th day, just before the next administration, the locomotor activity was measured as described earlier, from 2 to 6 min after test start, i.e. in the period identical to the duration of FST. Blood and organ collection was performed on the 17th day at 24 h after the last dose and fasting.
Blood samples were collected from the Swiss albino mice 24 h after the last administration of the tested compounds or vehicle. To determine glucose, cholesterol and triglyceride levels in the plasma, standard enzymatic spectrophotometric tests (Biomaxima S.A. Lublin, Poland) were used. In the presence of appropriate enzyme, the substrate was converted to a colored compound. Absorbance was measured at a wavelength of 500 nm. To determine alanine aminotransferase (ALAT) or γ-glutamyl transpeptidase (γ-GTP) activities in the plasma, the standard enzymatic spectrophotometric test (Biomaxima S.A.) was used. Absorbance was measured at 340 nm (ALAT) or 405 nm (γ-GTP).

[2] = system: mice; experiment: Spontaneous activity monitoring (RFID TraffiCage, 18 h); format: in vivo, Swiss albino mice; settings: for Mean counts, spontaneous activity: 0.625 mg/kg
Method: as §1
The spontaneous activity of the mice was measured on the 1st and 15th day of the treatment with a special, innovative radiofrequency identification system (RFID-system)—TraffiCage (TSE-Systems, Germany). The test was conducted according to the method described in the literature. The animals had the transmitter (RFID) subcutaneously implanted, which tracked the time they spent in different areas of the cage. The data obtained were then grouped in a special computer program.

[3] = molecular target: serotonergic 5-HT1A receptor (5-HT1AR); set-up: method as in PMID 27353547; settings: ref [8]; cited from earlier work
[4] = system: PDE10A; set-up: method as in PMID 27353547; settings: in vitro, bioluminescent detection system; ref [8]; cited from earlier work
[5] = molecular target: T1, human 5-HT1AR (Homo sapiens, UniProt P08908); experiment: β-Arrestin recruitment (Tango LiveBLAzer, HTR1A-bla U2OS cells)
T1 sequence (P08908 1-422): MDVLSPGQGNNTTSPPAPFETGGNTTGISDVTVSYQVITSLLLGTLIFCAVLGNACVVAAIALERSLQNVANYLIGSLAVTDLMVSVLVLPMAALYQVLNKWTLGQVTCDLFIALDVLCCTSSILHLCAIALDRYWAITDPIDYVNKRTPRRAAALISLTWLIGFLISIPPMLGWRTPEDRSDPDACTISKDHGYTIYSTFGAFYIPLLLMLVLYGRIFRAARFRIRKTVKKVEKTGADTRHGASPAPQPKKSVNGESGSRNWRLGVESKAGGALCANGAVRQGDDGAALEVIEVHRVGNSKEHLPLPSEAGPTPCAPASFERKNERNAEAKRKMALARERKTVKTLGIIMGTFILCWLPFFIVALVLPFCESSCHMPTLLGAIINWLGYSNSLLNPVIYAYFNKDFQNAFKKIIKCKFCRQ
Method: Cells were cultured according to manufacturer’s instruction. […] This parental cell line stably expresses a beta-arrestin/TEV protease fusion protein and the beta-lactamase reporter gene under the control of a UAS response element. The Tango™ HTR1A-bla U2OS cells have been functionally validated for a response to 5-CT. This cell line tested negative for mycoplasma.
The HTR1A-bla U2OS receptor cells containing the human 5-HT1AR linked to a TEV protease site and a Gal4-VP16 transcription factor were tested for recruitment of β-arrestin. […] The recruitment of β-arrestin were tested using the Tango LiveBLAzer assay kit according to the manufacturer’s instruction (Life Technologies). The assay plate was measured in FLUOstar Optima, a multifunction plate reader (BMG Lab Tech).

[6] = molecular target: T2, human serotonin 5-HT1AR (Homo sapiens, UniProt P08908); experiment: cAMP inhibition (LANCE Ultra cAMP, forskolin-stimulated CHO-K1 cells)
T2 sequence (P08908 1-422): T1 sequence (P08908 1-422)
Method: CHO-K1 cell line transfected with 5-HT1A receptor, were commercially obtained from Perkin Elmer (Cat. No. ES-310-C, Lot Number M2W-C1). Cells were cultured according to manufacturer’s instruction.
The cells were cultured under selective conditions (400 μg/mL Geneticin G418). Thawed cells were resuspended in stimulation buffer (HBSS, 5 mM HEPES, 0.5 IBMX, and 0.1% BSA at pH 7.4) at 2 × 10^5 cells/mL. The same volume (10 μL) of cell suspension was added to tested compounds with 10 μM forskolin. Cell stimulation was performed for 40 min at room temperature. After incubation, cAMP measurements were performed with homogeneous TR-FRET immunoassay using the LANCE Ultra cAMP kit (PerkinElmer, USA) according to the manufacturer’s instruction (PerkinElmer). The TR-FRET signal was read on an EnVision microplate reader (PerkinElmer, USA).

[7] = 18-h monitoring, AZ-853 0.625, AZ-861 1.25 mg/kg b.w./day

increase of plasma γ-GTP activity [1]: approximately 435%
Mean counts, spontaneous activity ([2]; after 1st administration, 1 h after administration): 422.3 counts
Mean counts, spontaneous activity ([2]; after 1st administration, 2 h after administration): 229.6 counts
Mean counts, spontaneous activity ([2]; after 1st administration, 3 h after administration): 213.6 counts
Mean counts, spontaneous activity ([2]; after 1st administration, 4 h after administration): 200.4 counts
Mean counts, spontaneous activity ([2]; after 1st administration, 5 h after administration): 179.9 counts
Mean counts, spontaneous activity ([2]; after 1st administration, 6 h after administration): 236.7 counts
Mean counts, spontaneous activity ([2]; after 1st administration, 7 h after administration): 254.4 counts
Mean counts, spontaneous activity ([2]; after 1st administration, 8 h after administration): 265.9 counts
Mean counts, spontaneous activity ([2]; after 1st administration, 9 h after administration): 189.1 counts
Mean counts, spontaneous activity ([2]; after 1st administration, 10 h after administration): 250.4 counts
Mean counts, spontaneous activity ([2]; after 1st administration, 11 h after administration): 226.9 counts
Mean counts, spontaneous activity ([2]; after 1st administration, 12 h after administration): 397.9 counts
Mean counts, spontaneous activity ([2]; after 1st administration, 13 h after administration): 346.3 counts
Mean counts, spontaneous activity ([2]; after 1st administration, 14 h after administration): 365.0 counts
Mean counts, spontaneous activity ([2]; after 1st administration, 15 h after administration): 380.1 counts
Mean counts, spontaneous activity ([2]; after 1st administration, 16 h after administration): 407.7 counts
Mean counts, spontaneous activity ([2]; after 1st administration, 17 h after administration): 351.3 counts
Mean counts, spontaneous activity ([2]; after 1st administration, 18 h after administration): 351.3 counts
Mean counts, spontaneous activity ([2]; after 15th administration, 1 h after administration): 324.3 counts
Mean counts, spontaneous activity ([2]; after 15th administration, 2 h after administration): 152.7 counts
Mean counts, spontaneous activity ([2]; after 15th administration, 3 h after administration): 148.6 counts
Mean counts, spontaneous activity ([2]; after 15th administration, 4 h after administration): 120.0 counts
Mean counts, spontaneous activity ([2]; after 15th administration, 5 h after administration): 166.6 counts
Mean counts, spontaneous activity ([2]; after 15th administration, 6 h after administration): 110.9 counts
Mean counts, spontaneous activity ([2]; after 15th administration, 7 h after administration): 134.7 counts
Mean counts, spontaneous activity ([2]; after 15th administration, 8 h after administration): 144.6 counts
Mean counts, spontaneous activity ([2]; after 15th administration, 9 h after administration): 138.1 counts
Mean counts, spontaneous activity ([2]; after 15th administration, 10 h after administration): 272.4 counts
Mean counts, spontaneous activity ([2]; after 15th administration, 11 h after administration): 256.9 counts
Mean counts, spontaneous activity ([2]; after 15th administration, 12 h after administration): 347.2 counts
Mean counts, spontaneous activity ([2]; after 15th administration, 13 h after administration): 396.8 counts
Mean counts, spontaneous activity ([2]; after 15th administration, 14 h after administration): 307.7 counts
Mean counts, spontaneous activity ([2]; after 15th administration, 15 h after administration): 281.8 counts
Mean counts, spontaneous activity ([2]; after 15th administration, 16 h after administration): 249.2 counts
Mean counts, spontaneous activity ([2]; after 15th administration, 17 h after administration): 304.0 counts
Mean counts, spontaneous activity ([2]; after 15th administration, 18 h after administration): 356.3 counts
EC50 [5]: 4.17 nM
Emax ([5]; U2OS, read-out: Emax (%) ± SEM, agonist mode): 93 ± 1.7%
increased potency as compared to 5-HT ([5]; β-arrestin recruitment): 95 fold
EC50 [6]: 15.8 nM
Emax ([6]; CHO-K1, read-out: Emax (%) ± SEM, agonist mode): 43 ± 0.5%
lower efficacy than 5-HT ([6]; cAMP inhibition): 2.3 fold
lower potency than 5-HT ([6]; cAMP inhibition): 1.4 fold
Structure (SMILES): Cn1c(=O)c2c(nc3n(CCCCN4CCN(c5ccccc5F)CC4)ccn23)n(C)c1=O [AZ-853, 8-(4-(4-(2-fluorophenyl)piperazin-1-yl)butyl)-1,3-dimethyl-1H-imidazo[2,1-f]purine-2,4(3H,8H)-dione]
plasma ALAT activity vs. control [1]: did not lead to significant changes in ALAT activity
spontaneous activity after the 1st administration vs. control [2, 7]: increased spontaneous activity in the 1st, 7th, 12th and 13th hour
spontaneous activity after the 15th administration vs. control [2, 7]: significant increase in activity was observed only in the 1st hour; also recorded: in the 4th, 7th and 9th hour after administration, a significant reduction in spontaneous activity
Ki [3]: 0.6 nM
PDE10A inhibitory activity [4]: did not induce PDE4B and PDE10A inhibitory activity
